Assay results published in patent US20240318134A1, “IN VITRO GENERATION OF ORGANIZED 3D CELL STRUCTURES INCLUDING HEAD-TRUNK EMBRYO-LIKE STRUCTURES, USING EPIGENETIC REMODELING FACTORS-MICROFLUIDIC PLATFORM SUITABLE FOR THEIR GENERATION” (INSTITUT PASTEUR, priority 2021, published 2024).

Legend:
Nanog = Nanog expression at D8 after a round of hypoSUMOylation followed by 5-azacytidine treatment; type: cell-based, mouse; conditions: 0.1 μM for 5 days after the first wave of hypoSUMOylation
[1] = test system: global level of SUMOylation in mouse ESCs; experiment: Immunoblots of SUMO1 and SUMO2/3 conjugates in treated ESCs; type: cell-based; conditions: D3 and D10, after first and second 48 h treatment; restored at D8 after withdrawal
Method: Cells were collected and directly lysed in Laemmli buffer (Bio-Rad #161-0747). Proteins were quantified using Pierce 660 nm Protein Assay (ThermoFisher Scientific #22662) according to manufacturer's instructions. Equal amounts of proteins were loaded on gels and good equilibration of the different samples was assessed by Ponceau staining after membrane transfer. Antibodies against SUMO1 (1:1000, Abcam #ab32058), Actin (1:4000, Sigma #A1978), SUMO2/3 (1:1000, Abcam #ab81371), Gapdh (1:1000, Cell Signaling #2118), Dnmt1 (1:1000, Abcam #ab13537), Dnmt3a (1:1000, Abcam #ab2850), Dnmt3b (1:1000, Abcam #ab2851), Tet2 (1:1000, Cell Signaling #36449S), Histone H3 (1:5000, Abcam #ab24834) were used according to standard protocols and suppliers' recommendations.

mouse ESCs (ES R1 cells) = experiment: Generating adherent spheroids from mouse ESCs by two 48 h rounds of SUMO E1 inhibitor followed by medium switch; type: cell-based; conditions: two rounds of 48 h treatment in serum+Lif, then switch to N2B27+Lif; ML-792 2.5 μM, TAK-981 0.1 μM
Method: • Using ML-792 as hypoSUMOylation agent (SUMO E1 enzyme inhibitor): ESCs (ES R1 cells-129X1×129S1—ATCC) were dissociated with Trypsin-EDTA and plated (2.5 million cells in 100 mm dish) in serum+Lif medium supplemented with 2.5 μM ML-792 (Takeda Pharmaceuticals International Co.). Medium was replaced the next day to refresh treatment. After 48 h of treatment, plates were rinsed twice with PBS then cells were allowed to recover in serum+Lif. 5 days after the end of the first round, cells were similarly counted and plated for a 2nd round of ML-792. After 48 h of treatment, plates were rinsed twice with PBS then cells were allowed to recover in N2B27+Lif medium. […] By contrast the following specific parameters are taken into consideration with TAK-981:
On Day 1: first round. 500 000 ES R1 cells were plated per well well of a gelatin-coated 6-well plate in 2 ml of serum+Lif medium, supplemented with 0.1 μM of TAK-981. On Day 2, medium was replaced (aspirated) to refresh treatment (2 mL of Serum+Lif medium, supplemented with 0.1 μM of TAK-981 were added). After 48 h of treatment, on Day 3, the medium was aspirated and wells were rinsed twice with PBS then cells were allowed to recover in 2 ml of added serum+Lif. 6 days after the end of the first round, cells were similarly counted and plated for a 2nd round of TAK-981 (for example starting on Day 9 from the start of first round). […]

Dnmt3a = Dnmt3a gene expression upon ML-792 treatment (siSall4 experiment); type: cell-based, mouse; conditions: ML-792 treatment for 48 h; induction reduced by Sall4 knockdown
Method: (§1) cDNA was generated with a High-Capacity cDNA Reverse Transcription Kit (Applied Biosystems #4368814) from 500 ng to […] of total RNA purified by Trizol extraction. Quantitative real-time PCR analysis was performed with SYBR Green PCR master mix (Applied Biosystems #4309155) and the primer sets indicated in Supplementary Table 7 using cDNA or genomic DNA (local ChIP). Quantitative real-time PCR analysis was performed on a CFX96 Touch Real-Time PCR Detection System (Bio-Rad) or a QuantStudio 6 Flex Real-Time PCR System (Applied Biosystems).

[2] = test system: whole genome methylated CG fraction; experiment: Genome-wide DNA methylation profiling (Methyl-seq) during the hypoSUMOylation protocol; type: cell-based, mouse; conditions: D1 to D10 of the hypoSUMOylation protocol
Method: DNA was extracted and purified from 2 million cells for each condition with the Quick-DNA Midiprep Plus Kit (Zymo Research D4075) following manufacturer's instructions. DNA was quantified with a NanoDrop ND-1000 (ThermoFisher Scientific). The NEBNext Enzymatic Methyl-seq Kit (New England Biolabs #E7120S) was used to prepare libraries for detection of 5-mC and 5-hmC. 200 ng of DNA from each sample were sheared to 275 bp fragments with an E220 Focused-ultrasonicator (Covaris) with the following settings: Duty Factor, 10%—Peak Incident Power, 175 W—Cycles per burst, 200—Duration, 100 sec. Fragment size was validated by a 4200 TapeStation System (Agilent Technologies). The NEBNext Enzymatic Methyl-seq Kit workflow was then followed, using the sodium hydroxide option for the denaturation step. The size distribution and concentration of the libraries was determined by TapeStation. The libraries were sequenced on an Illumina HiSeq4000 sequencer as paired-end 100 base reads following Illumina's instructions. […]
Methyl-seq data were processed with the Bismark pipeline^62 using bowtie2 aligner^64 with the default parameters. Biological triplicates were merged and CG sites with at least 5 reads were kept for downstream analyses. Methylated and unmethylated CG sites were counted within predetermined windows (bin or interval) and a binomial test was used to compare different timepoints or regions. […]

[3] = test system: mouse ESC-derived spheroids; experiment: Marker expression and cell types of spheroids prepared with SUMO E1 inhibitor; type: cell-based; conditions: spheroids prepared with TAK-981; same as with ML-792
Method: On Day 1: first round. 500 000 ES R1 cells were plated per well well of a gelatin-coated 6-well plate in 2 ml of serum+Lif medium, supplemented with 0.1 μM of TAK-981. On Day 2, medium was replaced (aspirated) to refresh treatment (2 mL of Serum+Lif medium, supplemented with 0.1 μM of TAK-981 were added). After 48 h of treatment, on Day 3, the medium was aspirated and wells were rinsed twice with PBS then cells were allowed to recover in 2 ml of added serum+Lif. 6 days after the end of the first round, cells were similarly counted and plated for a 2nd round of TAK-981 (for example starting on Day 9 from the start of first round). On Day 9, 500 000 ES R1 cells were seeded per well on a gelatin-coated 6-well plate in 2 mL of Serum+Lif medium, supplemented with 0.1 μM of TAK-981 On day 10, the medium was aspirated and 2 ml of serum+Lif medium were added, supplemented with 0.1 μM of TAK-981 After 48 h of treatment (on Day 11), the medium was aspirated and wells were rinsed twice with PBS then cells were allowed to recover in 2 ml of N2B27+Lif medium that were added. Culture was carried out in N2B27+Lif medium.
as §1

Row | SMILES | Nanog expression at D8 (Nanog) | level of SUMO conjugates (SUMO1, SUMO2/3 immunoblot) [1] | formation of spheroid structures (mouse ESCs (ES R1 cells)) | Dnmt3a expression (Dnmt3a) | whole genome methylated CG fraction [2] | emergence of EPI-L cell type [3] | emergence of ESC-L cell type [3] | emergence of XEN-L cell type [3] | pluripotency marker expression in spheroids [3]
1 | Nc1ncn([C@@H]2O[C@H](CO)[C@@H](O)[C@H]2O)c(=O)n1 [5-azacytidine] | able to maintain a high level of Nanog | – | – | – | – | – | – | – | –
2 | NS(=O)(=O)OC[C@H]1C[C@@H](Nc2ncncc2C(=O)c2ccn(Cc3cccc(Br)c3)n2)C[C@@H]1O [ML-792] | – | drop of SUMO conjugates at day 3 (D3) and D10 | yielded large spheroid structures on adherent plates | induction of Dnmt3a | gradual increase of the methylated CG fraction from D1 to D10 | – | – | – | –
3 | Cc1sc(C(=O)c2cncnc2NC2C[C@H](COS(N)(=O)=O)[C@@H](C)C2)cc1[C@@H]1NCCc2ccc(Cl)cc21 (stereo partly shown) [TAK-981] | – | – | cells form three-dimensional adherent spheroids | – | – | Emergence of an EPI-L cell type expressing Pou3f1, Fgt5, Wnt3 | Emergence of an ESC-L cell type expressing Dppa3 | Emergence of a XEN-L cell type expressing Sox17, Gata4, Snail | Decrease of pluripotency markers Nanog, Essrb
